# Measurements as given in US20230192787A1, “DIAGNOSIS METHODS, DIAGNOSTIC AGENTS, AND THERAPEUTIC AGENTS AGAINST ALZHEIMER'S DISEASE AND FRONTOTEMPORAL LOBAR DEGENERATION, AND SCREENING METHODS FOR THESE AGENTS” (National University Corporation Tokyo Medical and Dental …, priority 2013, published 2023).
# Entries after “also recorded” stand apart in the source; their conditions may differ.
# Assays:
# [1] = tested on: 5×FAD mice; assay: In vivo two-photon imaging of dendritic spines after administering kinase inhibitors/activator; set-up: species or system mouse; conditions: 5×FAD mice (12 weeks old); for spine densities by morphological type (thin, mushroom, stubby) / spine dynamics: spine formation and stability: 36 hours and 60 hours after administration; for dendritic spine density (total spine density): layer 1 of retrosplenial cortex, 36 hours and 60 hours after administration by osmotic pump
# Experimental: (§1) Two-photon imaging of dendritic spine was performed using a laser-scanning microscope system FV1000MPE2 (manufactured by Olympus Corporation) equipped with an upright microscope (BX61WI, manufactured by Olympus Corporation, a water-immersion objective lens (XLPlanN25xW; numerical aperture, 1.05), and a pulsed laser (MaiTai HP DeepSee, manufactured by Spectra Physics). In the imaging, EGFP was excited by light at a wavelength of 890 nm, and scanned in a range of 500 to 550 nm. Moreover, the scanned region for three-dimensional imaging was 100×100 μm (1 μm Z-axis steps, 1024×1024 pixels).
# (§2) Additionally, two weeks before the imaging, adeno-associated virus 1 (AAV1)-EGFP with the synapsin 1 promoter (titer: 1×10^10 vector genomes/mL, 1 μL) was injected into the retrosplenial cortex (−2.0 mm anteroposterior and 0.6 mm mediolateral from the bregma, depth 1 mm) of mice under anesthesia with 2.5% isoflurane. Then, two weeks thereafter, the dendritic spines of the first layer (layer 1) of the cerebral cortex were observed through a thinned skull window according to the method described in “Yang, G. et al., Nat. Protoc., 2010, Vol. 5, pp. 201 to 208.”
# Moreover, when the influence of kinase inhibition on dendritic spines was imaged, Alzet micro-osmotic pumps (model: 1003D, manufactured by Durect Corporation) filled with PBS/1% DMSO containing 1 μM Go6976 (manufactured by Calbiochem), 0.4 mM KN-93 (manufactured by Cayman Chemical), or 1 μM MLR1023 (manufactured by Glixx Laboratories) were implanted into mice under anesthesia with O2/isoflurane. […] Note that, regarding the PKC inhibitor Go6976, see Yan, Z. et al., Proc. Natl. Acad. Sci. U.S.A., 1999, Vol. 96, pp. 11607 to 11612. Regarding the CaMK inhibitor KN-93, see Galan, A. et al., Pain, 2004, Vol. 112, pp. 315 to 323. Regarding the Lyn activator MLR1023, see Saporito, M. S. et al., J. Pharmacol. Exp. Ther., 2012, Vol. 342, pp. 15 to 22.
# In addition, the spine density, spine length, spine maximum diameter, and spine neck minimum diameter were measured from the obtained images using image analysis software IMARIS 7.2.2 (manufactured by Bitplane).
# More concretely, the effect of the kinases on the synaptic pathology in the 5×FAD mice was analyzed by administering inhibitors and so forth against these kinases into the subarachnoid spaces of the mice. FIGS. 4 to 9 show the obtained result.
# [2] = tested on: PGRN-KI mice; assay: Fear-conditioning test in FTLD model mice; type: in vivo, mouse; conditions: provided every day over 6 weeks from 6 weeks old
# Experimental: In this test, first, a mouse received a sound stimulus (65-dB white noise, 30 seconds) together with an electrical stimulus (0.4 mA, 2 seconds) on the foot. Then, after 24 hours, the mouse was measured for the frequency of the freezing reaction when the mouse received a sound stimulus but no electrical stimulus in the same chamber.
# To be more specific, in accordance with the protocol shown in FIG. 21, a b-raf specific inhibitor vemurafenib or PBS was provided to the 6-week-old PGRN-KI mice every day over 6 weeks. Then, the behaviors of these mice were evaluated in the Morris water maze test and the fear-conditioning test. FIGS. 22 and 23 show the obtained result.
# Meanwhile, the therapeutic effect of thalidomide was also tested. Note that thalidomide is known to suppress the TNF signal transduction pathway. Concretely, in accordance with the protocol shown in FIG. 24, thalidomide was administered to the PGRN-KI mice by peritoneal cavity injection every day for the same period as that in the protocol using the b-raf inhibitor. The behaviors of these mice were evaluated by the above two tests. FIGS. 25 and 26 show the obtained result.
# [3] = tested on: PGRN-KI mice; assay: Immunohistological analysis of protein aggregation in brains of PGRN-KI mice; type: in vivo, mouse
# Source text: To be more specific, as the first hypothesis, the aforementioned therapeutic effect by suppressing b-raf phosphorylation was presumably based on the elimination of protein aggregation in the nerve by vemurafenib or thalidomide. Accordingly, analyzed was the recovery effect of vemurafenib or thalidomide on the protein aggregation in the cerebral cortexes of the PGRN-KI mice.
# [4] = tested on: phosphorylated PKC protein; assay: Western blot of cerebral cortexes of treated PGRN-KI mice, phosphorylated PKC; type: in vivo, mouse
# Experimental: (§3) FIG. 27 is a figure for illustrating the result of western blot analysis on the cerebral cortexes of wild-type mice (WT) and the PGRN-KI mice to which vemurafenib was administered. […] “Anti-p-Braf” and “Anti-p-PKC” respectively show the analysis result of phosphorylated b-RAF protein and the analysis result of phosphorylated PKC protein. […] The significant differences were evaluated based on the P-value calculated by Student's independent t-test.
# (§4) FIG. 28 is a figure for illustrating the result of western blot analysis on the cerebral cortexes of the PGRN-KI mice to which thalidomide was administered. […] “Anti-p-Braf”, “Anti-Braf”, and “Anti-p-PKC” respectively show the analysis result of phosphorylated b-raf protein, the analysis result of b-raf protein, and the analysis result of phosphorylated PKC protein. […] Further, in the figure, one asterisk indicates p<0.05 in Student's independent t-test, and two asterisks indicate p<0.01 in Student's independent t-test.
# (§5) Moreover, the cerebral cortexes of the PGRN-KI mice treated with the agent were analyzed by western blot.
# [5] = tested on: phosphorylated b-RAF protein; assay: Western blot of cerebral cortexes of treated PGRN-KI mice, phosphorylated b-RAF; type: in vivo, mouse
# Experimental: as §3, §4, §5
# [6] = tested on: PGRN-KI mice; assay: Morris water maze test in FTLD model mice; type: in vivo, mouse; conditions: provided every day over 6 weeks from 6 weeks old
# Experimental: In this test, the mice received a 60-second trial four times a day for 5 days. The time until each mouse reached the platform was measured.
# Furthermore, the PGRN-KI mice were also subjected to six behavioral tests as in the case of Alzheimer's disease model mice described above. As a result, abnormalities regarding anxiety memory and anxiety-related memory were not observed in the open-field test, the light-dark box test, and the elevated plus maze test. […] Moreover, in the Morris water maze test, a statistically significant decrease was observed from the age of 3 months in the time during which the mice stayed in the target region or the number of times the mice passed through the target. […] Note that, in the Morris water maze test using the PGRN-KI mice, the mice received the 60-second trial four times a day for 5 days to learn the position of the platform (target region). […]
# To be more specific, in accordance with the protocol shown in FIG. 21, a b-raf specific inhibitor vemurafenib or PBS was provided to the 6-week-old PGRN-KI mice every day over 6 weeks. Then, the behaviors of these mice were evaluated in the Morris water maze test and the fear-conditioning test. […]
# Meanwhile, the therapeutic effect of thalidomide was also tested. […] The behaviors of these mice were evaluated by the above two tests. […]
# [7] = tested on: PGRN-KI mice; assay: In vivo two-photon imaging of synaptic spines in retrosplenial cortex of PGRN-KI mice (recovery experiment); set-up: species or system mouse
# Experimental: as §1, §2
# A pharmacological recovery experiment was conducted on the PGRN-KI mice as follows. […]
# In addition, analyzed was whether or not vemurafenib and/or tau knockdown enabled recovery of spine related phenotype. […]
SMILES,"spine densities by morphological type (thin, mushroom, stubby) [1]",spine dynamics: spine formation and stability [1],dendritic spine density (total spine density) [1],scores in the fear-conditioning test [2],FUS and p62 inclusion (IB) [3],transition of TDP43 into the cytoplasm [3],PKC phosphorylation [4],b-raf phosphorylation [5],scores in the Morris water maze test [6],"number of spines ([7]; PGRN-KI mice (12 weeks old), vemurafenib 1.7 μM by osmotic pump for 3 days, shRNA imaged on Day 5)","spine volume ([7]; PGRN-KI mice, trend, not a statistically significant difference)"
Cn1c2ccccc2c2c3c(c4c5ccccc5n(CCC#N)c4c21)CNC3=O [Go6976],the decreases were recovered; also recorded: increased,enhanced the spine formation and stability,recovered the decrease of spines; also recorded: increased the total spine density,–,–,–,–,–,–,–,–
COc1ccc(S(=O)(=O)N(CCO)c2ccccc2CN(C)C/C=C/c2ccc(Cl)cc2)cc1 [KN-93],the decreases were recovered,had a therapeutic effect on the spine formation and stability,recovered the decrease of spines,–,–,–,–,–,–,–,–
Cc1cccc(Oc2cnc(O)nc2)c1 [MLR1023],the decreases were recovered,had a therapeutic effect on the spine formation and stability,recovered the decrease of spines,–,–,–,–,–,–,–,–
O=C1CCC(N2C(=O)c3ccccc3C2=O)C(=O)N1 (centres unmarked) [thalidomide],–,–,–,beneficial effects were finally verified,no significant effect,no large change was observed,the PKC phosphorylation was not suppressed,the b-raf phosphorylation was suppressing,beneficial effects were finally verified,–,–
"CCCS(=O)(=O)Nc1ccc(F)c(C(=O)c2c[nH]c3ncc(-c4ccc(Cl)cc4)cc23)c1F [vemurafenib, N-{3-[5-(4-chlorophenyl)-1H-pyrrolo[2,3-b]pyridine-3-carbonyl]-2,4-difluorophenyl}propane-1-sulfonamide]",–,–,–,remarkably recovered the scores in the two tests,no significant effect,no large change was observed,also suppressed the PKC phosphorylation,suppressed the b-raf phosphorylation,remarkably recovered the scores in the two tests,recovered the number of spines; also recorded: had a recovery effect on the number of spines,decreased the spine volume
